Assay results published in patent publication US20050239873A1 (priority 1999, published 2005).

Tests used:
[1] = tested on: unfractionated human bone marrow cells; assay: Toxicity in normal bone marrow cells (PI and annexin V, flow cytometry); format: cell-based; conditions: 5-20 μg/ml, 24 to 48 h
Protocol: The RPMI-8226 cell line was supplied by W. Dalton (Univ. Arizona). U266 and H929 cell lines were obtained from the American Type Culture Collection (Rockville, Md.). Cell lines were grown in RPMI 1640 (Gibco, Grand Island, N.Y.) supplemented with 5% fetal bovine serum (Hyclone, Logan, Utah). Normal bone marrow samples were obtained from allogeneic transplant donors at the Fred Hutchison Cancer Research Center, Seattle, Wash., with appropriate patient consent and Internal Review Board approval. Primary cells were maintained in Iscove's medium (Gibco) supplemented with 10% bovine calf serum, 100 ng/ml stem cell factor (Amgen, Thousand Oaks, Calif.), and 50 ng/ml interleukin-3 (Biosource, Camarillo, Calif.).
Cell survival was assayed by exclusion of propidium iodide (PI; 10 μg/ml) by unfixed cells. Annexin V-FITC (Pharmingen) or 3, 3′-dihexyloxacarbocyanine iodide (DiOC6(3); Molecular Probes) staining was analyzed together with PI to discriminate early apoptotic cells. Apoptotic cells were also measured as sub-G1 events among ethanol-fixed cells stained with 10 μg/ml PI. All cell samples were analyzed using a benchtop FACSCalibur™ (Becton Dickinson, San Jose, Calif.). Flow data were analyzed using MultiCycle AV software (Phoenix Flow Systems). For intracellular pH measurements, cell pellets were washed once and resuspended in 2 ml of HEPES-buffered medium (no phenol red and no serum). […]

RPMI-8226 cells = conditions: suboptimal combinations with etoposide or melphalan
Protocol: Current anti-myeloma regimens incorporate multiple drugs with different mechanisms of action. RPMI-8226 cells were treated with 2-OMeA1 in combination with standard chemotherapeutic agents used in myeloma treatment: etoposide, melphalan, or daunorubicin (Sonneveld and Segeren, Eur. J. Cancer 39:9-18, 2003).

NCI-H929 = assay: Propidium iodide exclusion / flow cytometry cytotoxicity; format: cell-based, human; conditions: 5 to about 20 μg/ml
Protocol: (§1) Cell survival was assayed by exclusion of propidium iodide (PI; 10 μg/ml) by unfixed cells. Annexin V-FITC (Pharmingen) or 3, 3′-dihexyloxacarbocyanine iodide (DiOC6(3); Molecular Probes) staining was analyzed together with PI to discriminate early apoptotic cells. Apoptotic cells were also measured as sub-G1 events among ethanol-fixed cells stained with 10 μg/ml PI. All cell samples were analyzed using a benchtop FACSCalibur™ (Becton Dickinson, San Jose, Calif.). Flow data were analyzed using MultiCycle AV software (Phoenix Flow Systems). For intracellular pH measurements, cell pellets were washed once and resuspended in 2 ml of HEPES-buffered medium (no phenol red and no serum). Carboxy-SNARF-1-AM (Molecular Probes, 1 mM stock in DMSO, stored at −20° C.) was added to a final concentration of 10 μM, and the cells were incubated for 30 min at 37° C. Following incubation with SNARF, cells were sedimented and the pellets were held on ice. Immediately before analysis, pellets were resuspended in […] (HBSS; experimental buffer) or high-[K+] buffer containing nigericin (calibration samples).

U266 = assay: as above; format: cell-based, human; conditions: 5 to about 20 μg/ml
Protocol: as §1

[2] = tested on: mitochondria from TABX1A cells; assay: Swelling of isolated mitochondria (absorbance at 540 nm); parameters: species or system murine; conditions: even at much higher concentrations
AML-12.Bcl-xL cells = assay: Sensitivity of non-tumorigenic liver cells to antimycin A; format: cell-based, mouse; conditions: vs AML-12 control transfectants
Text: The effects of BCl-xL over-expression on non-tumorigenic cells was also examined. […] Briefly, AML-12 cells were transfected as described above with pSFFV.Bcl-xL(sense) and pSFFV.neo. AML-12-pSFFV. Bcl-xL(sense) cells expressed approximately 3 to 4 fold higher BCl-xL protein levels than did AML-12 cells transfected with the control plasmid, pSFFV.neo, when assayed by Western blot analysis.

[3] = Binding to plasma proteins (ultrafiltration); format: in vitro ADME, mouse; conditions: mouse, plasma, presence of NaF+EDTA, read-out: Protein binding, Mouse
Protocol: Solutions of 2-OMe antimycin A3 were diluted with plasma (dog or human) containing NaF+EDTA to final concentrations of 1.0 or 0.2 μg/ml. Controls were diluted with water to the same final concentrations. These preparations were incubated at 37° C. for 20 min, at which time portions were taken and placed in the sample reservoirs of Amicon Centrifree® ultrafiltration systems (Millipore Co., Bedford, Mass.). At 37° C., the filter systems were centrifuged until the reservoirs were dry. From each filtrate, portions were taken for analysis by HPLC. The amounts present were designated as “free drug” (F). The concentrations of the unfiltered solutions were also determined by triplicate analyses. This amount represented the “total drug” concentration (T). The percentage of 2-OMe antimycin A3 bound to plasma proteins was calculated by the following formula: % bound=((T−F)/T)×100

S9 metabolism = format: in vitro ADME, human; conditions: pH 7.4
Text: All chemicals and solvents used for sample preparation and HPLC analysis were analytical grade. Acetonitrile, methanol, and phosphoric acid were purchased from Fisher Scientific (Atlanta, Ga.). Hepatic S9 fractions from male CD2F1 mice, male Sprague Dawley rats, male dogs, and male humans were purchased from In Vitro Technologies (Boston, Mass.). The National Cancer Institute provided samples of the test compounds and male CD2F1 mice. Fischer 344 rats with implanted jugular cannulas were obtained from Charles River Laboratories (Cambridge, Mass.). All animal use and care procedures were approved by the Institutional Committee on Animal Use and Care at the University of Alabama at Birmingham and conformed to the guidelines found in Guide for the Care and Use of Laboratory Animals, National Academy Press, 1996.
To evaluate metabolism of the test compounds by S9 fractions from various species, reaction systems maintained at 37° C. contained 2-OMe-A3 (500 ng/ml) and S9 (1 mg protein/ml) in 100 mM Tris buffer (pH 7.4). At selected times, triplicate portions of the mixtures were removed and processed for analysis, as described above.

[4] = tested on: mitochondria with normal levels of Bcl-xL expression; assay: JC-1 membrane potential of isolated mitochondria; parameters: species or system murine
Protocol: Isolated mitochondria were loaded with JC-1 prior to treatment, and mitochondrial labeling was determined using FACS. […] Antimycin A-treated mitochondria with high levels of Bcl-xL had lower levels of JC-1 staining than parallel samples treated with CCCP. Uncoupled mitochondria still retain a significant Donnan potential because of trapped anionic species and it is likely that antimycin-induced PT and/or swelling of mitochondria led to a further reduction of this residual potential.
As observed for the parent compound, antimycin A3, mitochondria with normal levels of BCl-xL expression were not affected by the 2-methoxy analog.

cellular O2 consumption = assay: Cellular O2 consumption; format: cell-based; conditions: compared to antimycin A3

For 2-methoxy antimycin A [2-OMeA], the “sensitivity of primary lymphoid and myeloid bone marrow cell subpopulations” value [1] was “insensitive”.
With CCCCCC[C@H]1C(=O)O[C@H](C)[C@H](NC(=O)c2cccc(NC=O)c2OC)C(=O)O[C@@H](C)[C@@H]1OC(=O)CC(C)C [2-OMeA1, 2-methoxy antimycin A1] the killing in combination (RPMI-8226 cells) was “Supra-additive killing”.
With antimycin A the “sensitivity (PI exclusion)” value (NCI-H929) was “sensitive”, the “sensitivity (PI exclusion)” value (U266) was “sensitive” and the mitochondrial swelling [2] was “did not exhibit similar permeability changes and swelling”. The “sensitivity to antimycin A” value (AML-12.Bcl-xL cells) was “increased sensitivity”.
For CCCC[C@H]1C(=O)OC(C)[C@H](NC(=O)c2cccc(NC=O)c2OC)C(=O)O[C@@H](C)C1OC(=O)CC(C)C (some centres unmarked) [2-OMeA3, Antimycin A3 methyl ether], the fraction unbound at 20 min, 1000 ng/ml [3] was less than 0.01, the half-life (S9 metabolism; 500 ng/ml, 37° C.) was “only slightly less than that for the control” and the half-life at 2000 ng/ml (S9 metabolism; male, human, hepatic S9 fraction, 2000 ng/ml) was roughly 10 min. The “mitochondrial depolarization (JC-1)” value [4] was “not affected” and the “effect on cellular O2 consumption” value (cellular O2 consumption) was “negligible effect”.
